Measurements: ChEMBL document CHEMBL5550154, “Novel biaryloxazolidinone derivatives with broad-spectrum antibacterial activity, favorable drug-like profiles and in vivo efficacy against linezolid-resistant Staphylococcusaureus” (Eur J Med Chem, 2024)
pIC50: −log10 of the molar value. ≈ marks a conversion by molar mass, not a printed value.

Key:
[1] = Microsomal stability in mouse liver microsomes assessed as intrinsic clearance pretreated with compound upto 60 mins followed by NADPH addition and measured after 60 mins by LC/MS analysis; format: ADME, Microsome; settings: time < 120 min, read-out: CLH
[2] = Microsomal stability in monkey liver microsomes assessed as elimination half life pretreated with compound upto 60 mins followed by NADPH addition and measured after 60 mins by LC/MS analysis; format: ADME, Macaca mulatta, Microsome; settings: rhesus monkey, time < 120 min, read-out: beta t1/2
[3] = Microsomal stability in dog liver microsomes assessed as parent compound remaining pretreated with compound upto 60 mins followed by NADPH addition and measured after 60 mins by LC/MS analysis; format: ADME, Canis lupus familiaris, Microsome; settings: time < 120 min, read-out: Stability
[4] = system: Staphylococcus aureus; assay: Antibacterial activity against Linezolid-resistant Staphylococcus aureus infected in systemic infection SPF-kunming mouse model assessed as survival rate at 40 mg/kg, IG measured every day for 7 days; format: functional; settings: po, 168 h, time 7 day
[5] = molecular target: Cytochrome P450 2C9 (Homo sapiens, UniProt P11712); assay: Inhibition of CYP2C9 in human liver microsomes using […] preincubated with compound for 5 mins followed by substrate addition and measured after 120 mins in presence of NADPH by LC-MS/MS analysis; format: ADME, Microsome
[6] = Stability in rat plasma assessed as parent compound remaining at 25 degreeC measured upto 60 mins by HPLC analysis; format: ADME, cell-free; settings: for remaining at 1 h: read-out: Stability
[7] = Plasma protein binding in human incubated for 6 hrs by LC-MS/MS analysis; format: ADME, cell-free; settings: read-out: PPB (converted)
[8] = Stability in rat plasma assessed as parent compound remaining at 37 degreeC measured upto 60 mins by HPLC analysis; format: ADME, cell-free; settings: read-out: Stability
[9] = system: Staphylococcus aureus; assay: Antibacterial activity against linezolid-resistant Staphylococcus aureus assessed as inhibition of bacterial growth incubated for 16 to 20 hrs by CLSI based broth liquid microdilution method; format: functional; settings: time 16-20 hrs
[10] = Clearance in Sprague-Dawley rat at 1 mg/kg, iv measured upto 24 hrs by LC-MS analysis; format: ADME, organism-based; settings: in vivo
[11] = Half life in ICR mouse at 1 mg/kg, iv measured upto 24 hrs by LC-MS analysis; format: ADME, organism-based; settings: in vivo
[12] = Plasma protein binding in dog incubated for 6 hrs by LC-MS/MS analysis; format: ADME, cell-free, Canis lupus familiaris; settings: read-out: PPB (converted)
[13] = Cmax in Sprague-Dawley rat at 10 mg/kg, IG measured upto 24 hrs by LC-MS analysis; format: ADME, organism-based; settings: in vivo, po
[14] = Stability in human plasma assessed as parent compound remaining at 37 degreeC measured upto 60 mins by HPLC analysis; format: ADME, cell-free; settings: read-out: Stability
[15] = Aqueous solubility of compound at pH 7.4 by LC-MS/MS analysis; format: physicochemical; settings: buffer
[16] = Stability in dog plasma assessed as parent compound remaining at 25 degreeC measured upto 60 mins by HPLC analysis; format: ADME, cell-free, Canis lupus familiaris; settings: read-out: Stability
[17] = molecular target: T1, Amine oxidase [flavin-containing] A (Homo sapiens, UniProt P21397); assay: Inhibition of MAO-A (unknown origin) preincubated with compound for 15 mins followed by substrate addition and measured after 60 mins by luminescence based microplate reader analysis; format: toxicity
T1 sequence (P21397 whole entry): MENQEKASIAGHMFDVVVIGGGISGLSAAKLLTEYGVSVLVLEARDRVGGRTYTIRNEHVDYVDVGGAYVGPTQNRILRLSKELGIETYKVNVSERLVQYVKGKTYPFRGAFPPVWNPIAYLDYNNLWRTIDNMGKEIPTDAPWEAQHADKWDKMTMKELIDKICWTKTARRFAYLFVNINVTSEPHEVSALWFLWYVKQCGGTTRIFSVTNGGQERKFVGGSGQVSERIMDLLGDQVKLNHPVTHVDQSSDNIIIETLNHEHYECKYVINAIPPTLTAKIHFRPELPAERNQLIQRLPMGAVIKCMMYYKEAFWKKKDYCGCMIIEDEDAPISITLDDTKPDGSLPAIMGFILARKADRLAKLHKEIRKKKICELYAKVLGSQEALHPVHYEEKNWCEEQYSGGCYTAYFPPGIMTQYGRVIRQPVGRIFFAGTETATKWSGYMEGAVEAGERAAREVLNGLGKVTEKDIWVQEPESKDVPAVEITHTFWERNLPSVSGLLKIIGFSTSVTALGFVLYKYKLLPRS

[18] = molecular target: Cytochrome P450 2C19 (Homo sapiens, UniProt P33261); assay: Inhibition of CYP2C19 in human liver microsomes […] preincubated with compound for 5 mins followed by substrate addition and measured after 120 mins in presence of NADPH by LC-MS/MS analysis; format: ADME, Microsome
[19] = molecular target: Cytochrome P450 3A4 (Homo sapiens, UniProt P08684); assay: Inhibition of CYP3A4 in human liver microsomes […] preincubated with compound for 5 mins followed by substrate addition and measured after 120 mins in presence of NADPH by LC-MS/MS analysis; format: ADME, Microsome
[20] = Tmax in Sprague-Dawley rat at 10 mg/kg, IG measured upto 24 hrs by LC-MS analysis; format: ADME, organism-based; settings: in vivo, po
[21] = Plasma protein binding in monkey incubated for 6 hrs by LC-MS/MS analysis; format: ADME, cell-free, Macaca mulatta; settings: rhesus monkey, read-out: PPB (converted)
[22] = Microsomal stability in human liver microsomes assessed as parent compound remaining pretreated with compound upto 60 mins followed by NADPH addition and measured after 60 mins by LC/MS analysis; format: ADME, Microsome; settings: time < 120 min; for remaining at 2 h: liver microsomes, read-out: Stability
[23] = molecular target: Cytochrome P450 2D6 (Homo sapiens, UniProt P10635); assay: Inhibition of CYP2D6 in human liver microsomes […] preincubated with compound for 5 mins followed by substrate addition and measured after 120 mins in presence of NADPH by LC-MS/MS analysis; format: ADME, Microsome
[24] = Stability in mouse plasma assessed as parent compound remaining at 25 degreeC measured upto 60 mins by HPLC analysis; format: ADME, cell-free; settings: for Stability: 1 h; for remaining at 1 h: read-out: Stability
[25] = Apparent permeability across apical to basolateral side in human Caco-2 cells; format: ADME, cell-based
[26] = Stability in human plasma assessed as parent compound remaining at 25 degreeC measured upto 60 mins by HPLC analysis; format: ADME, cell-free; settings: for remaining at 1 h: read-out: Stability; for Stability: 1 h
[27] = Apparent volume of distribution in Sprague-Dawley rat at 1 mg/kg, iv measured upto 24 hrs by LC-MS analysis; format: ADME, organism-based; settings: in vivo, read-out: Vz
[28] = Stability in monkey plasma assessed as parent compound remaining at 37 degreeC measured upto 60 mins by HPLC analysis; format: ADME, cell-free, Macaca mulatta; settings: rhesus monkey, read-out: Stability
[29] = Stability in monkey plasma assessed as parent compound remaining at 25 degreeC measured upto 60 mins by HPLC analysis; format: ADME, cell-free, Macaca mulatta; settings: rhesus monkey; for remaining at 1 h: read-out: Stability
[30] = Efflux ratio of apparent permeability across […] side in human Caco-2 cells; format: ADME, cell-based
[31] = Stability in simulated gastric acid assessed as compound remaining at pH 1.3 measured at 2 hrs; format: ADME; settings: read-out: Stability
[32] = Stability in simulated gastric acid assessed as compound remaining at pH 1.3 measured immediately; format: ADME; settings: read-out: Stability
[33] = Stability in simulated gastric acid assessed as compound remaining at pH 1.3 measured at 0.5 hrs; format: ADME; settings: read-out: Stability
[34] = Stability in simulated gastric acid assessed as compound remaining at pH 1.3 measured at 1.5 hrs; format: ADME; settings: read-out: Stability

Sequence of Cytochrome P450 2D6 (P10635 whole entry): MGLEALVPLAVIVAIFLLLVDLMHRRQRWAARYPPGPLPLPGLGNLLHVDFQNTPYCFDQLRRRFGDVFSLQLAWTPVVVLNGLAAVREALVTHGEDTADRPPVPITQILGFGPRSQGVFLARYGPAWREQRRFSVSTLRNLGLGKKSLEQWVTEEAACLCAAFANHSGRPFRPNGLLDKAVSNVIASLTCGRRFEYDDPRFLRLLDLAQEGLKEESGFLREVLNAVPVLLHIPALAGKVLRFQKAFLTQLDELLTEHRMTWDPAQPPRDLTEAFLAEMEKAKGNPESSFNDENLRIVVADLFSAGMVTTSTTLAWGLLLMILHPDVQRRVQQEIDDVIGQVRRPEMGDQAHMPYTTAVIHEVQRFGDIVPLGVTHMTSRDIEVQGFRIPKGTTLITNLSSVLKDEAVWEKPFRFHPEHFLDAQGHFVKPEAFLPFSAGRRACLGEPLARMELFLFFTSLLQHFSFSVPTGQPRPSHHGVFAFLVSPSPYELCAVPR
Sequence of Cytochrome P450 2C9 (P11712 whole entry): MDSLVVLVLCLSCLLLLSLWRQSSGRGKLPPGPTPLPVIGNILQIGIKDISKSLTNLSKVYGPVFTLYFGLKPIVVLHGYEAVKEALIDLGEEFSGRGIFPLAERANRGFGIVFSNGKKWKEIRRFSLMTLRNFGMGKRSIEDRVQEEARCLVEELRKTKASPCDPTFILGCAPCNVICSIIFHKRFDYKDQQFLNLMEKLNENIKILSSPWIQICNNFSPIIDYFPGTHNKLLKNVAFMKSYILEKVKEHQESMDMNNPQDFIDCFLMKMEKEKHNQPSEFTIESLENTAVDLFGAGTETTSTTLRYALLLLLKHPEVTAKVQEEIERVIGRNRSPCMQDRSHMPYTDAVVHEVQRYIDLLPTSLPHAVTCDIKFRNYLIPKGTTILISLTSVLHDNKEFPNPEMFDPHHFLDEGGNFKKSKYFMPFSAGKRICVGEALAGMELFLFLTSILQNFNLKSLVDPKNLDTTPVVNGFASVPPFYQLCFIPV
Sequence of Cytochrome P450 3A4 (P08684 whole entry): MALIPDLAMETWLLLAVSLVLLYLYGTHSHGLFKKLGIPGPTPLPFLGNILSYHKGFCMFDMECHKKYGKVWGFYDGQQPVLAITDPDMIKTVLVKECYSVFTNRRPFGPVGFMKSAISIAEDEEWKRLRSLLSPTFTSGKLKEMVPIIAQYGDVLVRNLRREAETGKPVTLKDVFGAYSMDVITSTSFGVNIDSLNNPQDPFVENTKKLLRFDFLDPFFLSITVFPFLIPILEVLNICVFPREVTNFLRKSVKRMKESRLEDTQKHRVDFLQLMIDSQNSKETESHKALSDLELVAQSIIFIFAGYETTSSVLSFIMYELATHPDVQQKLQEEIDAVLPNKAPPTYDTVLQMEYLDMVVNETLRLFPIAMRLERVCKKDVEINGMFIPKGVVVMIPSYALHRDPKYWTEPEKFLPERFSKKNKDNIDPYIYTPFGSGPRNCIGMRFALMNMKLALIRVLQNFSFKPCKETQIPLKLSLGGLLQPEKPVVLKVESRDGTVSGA
Sequence of Cytochrome P450 2C19 (P33261 whole entry): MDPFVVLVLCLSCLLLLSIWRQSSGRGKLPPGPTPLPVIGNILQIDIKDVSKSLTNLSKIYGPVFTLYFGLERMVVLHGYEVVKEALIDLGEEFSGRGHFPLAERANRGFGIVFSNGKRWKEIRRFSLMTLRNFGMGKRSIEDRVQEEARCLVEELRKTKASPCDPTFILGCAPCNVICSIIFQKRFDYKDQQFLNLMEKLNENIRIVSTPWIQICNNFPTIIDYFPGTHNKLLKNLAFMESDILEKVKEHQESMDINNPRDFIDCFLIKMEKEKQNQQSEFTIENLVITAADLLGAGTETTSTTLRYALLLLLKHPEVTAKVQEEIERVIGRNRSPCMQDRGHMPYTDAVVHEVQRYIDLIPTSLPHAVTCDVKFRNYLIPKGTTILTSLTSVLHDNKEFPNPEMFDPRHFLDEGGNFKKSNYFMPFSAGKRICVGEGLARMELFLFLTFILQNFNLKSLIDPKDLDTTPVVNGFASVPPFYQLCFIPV

Compound | microsomal CLint [1] [µL/min/mg] | half-life [2] [h] | remaining at 2 h [3] [%] | pIC50 [5] | remaining at 1 h [6] [%] | fraction unbound at 6 h [7] | remaining at 1 h [8] [%] | MIC [9] [µg/mL] | clearance [10] [mL/min/kg] | fraction unbound at 6 h [12] | Cmax [13] [ng/mL] | remaining at 1 h [14] [%] | remaining at 1 h [16] [%] | pIC50 [18] | pIC50 [19] | Tmax [20] [h] | fraction unbound at 6 h [21] | pIC50 [23] | Vd [27] [L/kg] | remaining at 1 h [28] [%] | also measured
O=C1O[C@@H](CO)CN1c1ccc(-c2ccc(/C=N/N3CCOCC3)nc2)c(F)c1 | 2.02 | 7.78 | 96.8 | < 4.52 | 116 | 0.144 | 103 | 0.125 (≈ 0.312 µM) | 14 | 0.169 | 2320 | 98.6 | 107 | < 4.52 | < 4.52 | 1.33 | 0.215 | < 4.52 | 0.81 | 103 | survival at 40 mg/kg [4]: 100%; half-life [11]: 2.1 h; solubility [15]: 10.9 µM (≈ 4.36 µg/mL); pIC50 [17]: 5.25; remaining at 2 h [22]: 66.2%; Stability [24]: 125%; Papp A→B [25]: 36.7 ×10⁻⁶ cm/s; remaining at 1 h [26]: 102%; remaining at 1 h [29]: 113%; Ratio [30]: 0.61
CC(=O)NC[C@H]1CN(c2ccc(N3CCOCC3)c(F)c2)C(=O)O1 [LINEZOLID] | 2.18 | 51.8 | 97.8 | < 4.52 | 99.2 | 0.716 | 107 |  | 24.7 | 0.829 | 4830 | 110 | 99.1 | < 4.52 | < 4.52 | 0.5 | 0.745 | < 4.52 | 0.75 | 105 | half-life [11]: 0.39 h; pIC50 [17]: 4.70; remaining at 2 h [22]: 102%; remaining at 1 h [24]: 110%; remaining at 1 h [26]: 99.4%; remaining at 1 h [29]: 99.4%
O=C1O[C@@H](CO)CN1c1ccc(-c2ccc(/C=N/N3CCCCC3)nc2)c(F)c1 | 9.37 | 1.34 | 67.4 | 5.27 |  | 0.013 | 104 | 0.03 (≈ 0.0753 µM) | 11.6 | 0.017 | 1380 | 118 | 97.4 | 6.07 | < 4.52 | 1.67 | 0.028 | < 4.52 | 1.06 | 105 | Stability ([6]; 1 h): 124%; half-life [11]: 1.54 h; solubility [15]: 9.94 µM (≈ 3.96 µg/mL); Stability ([22]; microsomes, 2 h): 71.7%; Stability [24]: 123%; Papp A→B [25]: 11.1 ×10⁻⁶ cm/s; Stability [26]: 149%; remaining at 1 h [29]: 120%; Ratio [30]: 1.5
O=C1O[C@@H](CO)CN1c1ccc(-c2ccc(/C=N/N3CCS(=O)(=O)CC3)nc2)c(F)c1 | 1.07 | 9.68 | 97 | < 4.52 | 113 | 0.223 | 106 | 0.25 (≈ 0.557 µM) | 14.7 | 0.275 | 597 | 104 | 113 | < 4.52 | < 4.52 | 0.42 | 0.284 | < 4.52 | 0.73 | 103 | solubility [15]: 20 µM (≈ 8.97 µg/mL); remaining at 2 h [22]: 98.7%; Stability [24]: 133%; Stability [26]: 126%; Stability ([29]; 1 h): 144%
CC(C)N/N=C/c1ccc(-c2ccc(N3C[C@H](CO)OC3=O)cc2F)cn1 | 18.4 | 1.68 | 76.7 | < 4.52 | 111 | 0.074 | 102 | 0.03 (≈ 0.0806 µM) | 10.3 | 0.074 | 2480 | 107 | 112 | 4.96 | 4.78 | 1.17 | 0.115 | < 4.52 | 0.72 | 106 | half-life [11]: 0.34 h; remaining at 2 h [31]: 87.1%; remaining at 0 h [32]: 100%; solubility [15]: 30.2 µM (≈ 11.2 µg/mL); remaining at 2 h [22]: 85.8%; remaining at 1 h [24]: 113%; remaining at 0.5 h [33]: 96.7%; remaining at 1 h [26]: 112%; remaining at 1.5 h [34]: 90.8%; remaining at 1 h [29]: 108%
